This is an account of results in US5411976A, “New thiazolidine derivatives, process for preparing same and anti-amnestic composition containing same” (Kabushiki Kaisha Yakult Nonsha, priority 1987, dated 1995).

Non-standard residues stand in square brackets, D forms with d. Residues, ends and D or L forms follow the SMILES beside them. *: point of attachment. Thz = O=C(O)[C@@H]1CSCN1; Cbz = O=C(OCc1ccccc1)*

Test [1] relates to SCOP-induced amnestic rat. The test can be described thus: Step-down type passive avoidance test in scopolamine-induced amnestic rats. In kind it is in vivo, rat (Wister strain). The conditions noted are these: for Acquisition trial: Step-down latency / Acquisition trial: Number of step-down / Acquisition trial: Total time for the test: scopolamine after learning; for Retention trial: Step-down latency after 24 hours / Retention trial: Step-down latency after 48 hours: scopolamine 3.0 mg/kg i.p. after learning. Here is the method: (2) A step-down type passive avoidance test
This test was carried out by using the undermentioned apparatus (A) and test animal (B) according to the undermentioned testing method (C).
(A) Test chamber for passive avoidance response of rats
A test chamber of 200(w)×200(1) mm in area was made of transparent acrylic resin plates for observation of the inside and was provided on one side thereof with an electrically insulated platform of 150(w)×200(1)×40(h) in size and on the bottom with a grid floor made of stainless steel which was equipped with a foot-shock generator/scrumbler (HASG-101/S, Medical Agent, Inc.) capable of sending electric current to the grid floor for giving a test animal electric foot shock.
5-Weeks-old male rats of Wister strain weighing 100-145 g (Japan Clea Co., Ltd.) were used as test animals.
The passive avoidance test consists of two steps; an acquisition trial and a retention trial. […] As control, only saline was administered intraperitoneally to a group of the rats. In the acquisition trial, the rat was placed on the platform in the test chamber and, when the rat stepped down on the floor, the electric current of 4 mA was immediately sent to the grid continuously until the rat went up on the platform. At the time the rat having gone up on the platform stayed there for more than 20 seconds, the rat was regarded to have learned the situation and taken out of the test chamber. Repeating this test with another rat under the same condition, the rats learned the situation were collected as passing the test for the acquisition trial. A total time of measurement in the acquisition trial was limited to 300 seconds as maximum, and the time elapsing until the rat stepped down to the grid floor (step-down latency, SDL), the total time elapsing until the rat learned the situation and the times of step-down were measured. […] Immediately after the acquisition trial, scopolamine hydrobromide (SCOP) dissolved in saline was administered intraperitoneally in a dose of 3.0 mg/kg of body weight to the rat to prepare a SCOP-induced amnestic rat. As control, only saline was administered intraperitoneally to a group of the rats. The retention trial was carried out by putting the rat on the platform of the test chamber after the lapse of 24 and 48 hours from the acquisition trial, and the time elapsing until the rat went down to the floor (SDL) was measured. A statistical treatment of the data obtained was made according to the Student's t-test.

In test [2] the target is T1, prolyl endopeptidase (Homo sapiens, UniProt P48147).
T1 sequence (P48147 1-710): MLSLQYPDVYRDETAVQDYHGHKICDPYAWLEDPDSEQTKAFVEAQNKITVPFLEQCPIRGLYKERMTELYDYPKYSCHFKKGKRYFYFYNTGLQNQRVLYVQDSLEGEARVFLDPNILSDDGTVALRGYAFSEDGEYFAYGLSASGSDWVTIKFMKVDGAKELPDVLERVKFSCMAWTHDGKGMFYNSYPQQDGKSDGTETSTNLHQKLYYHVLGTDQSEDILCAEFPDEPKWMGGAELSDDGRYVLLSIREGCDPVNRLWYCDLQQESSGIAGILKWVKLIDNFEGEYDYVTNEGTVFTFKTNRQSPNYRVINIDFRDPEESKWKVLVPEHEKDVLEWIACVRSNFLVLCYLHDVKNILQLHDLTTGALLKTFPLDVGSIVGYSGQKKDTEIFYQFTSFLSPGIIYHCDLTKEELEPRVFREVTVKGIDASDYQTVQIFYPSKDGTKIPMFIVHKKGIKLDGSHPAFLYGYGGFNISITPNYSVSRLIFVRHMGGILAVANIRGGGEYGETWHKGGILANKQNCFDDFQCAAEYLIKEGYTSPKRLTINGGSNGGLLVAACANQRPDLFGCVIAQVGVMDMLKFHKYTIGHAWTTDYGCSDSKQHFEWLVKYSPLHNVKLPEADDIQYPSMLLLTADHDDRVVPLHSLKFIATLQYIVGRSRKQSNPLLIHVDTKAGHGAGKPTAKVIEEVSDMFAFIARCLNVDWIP
The test can be described thus: Inhibitory activity to prolyl endopeptidase (IC50). In kind it is biochemical.

The mark [3] stands for this setting: 2.2 mg/kg i.p. one hour before acquisition trial.

`O=C[C@@H]1CSCN1C(=O)[C@@H]1CSCN1C(=O)OCc1ccccc1` [Example 4, N-benzyloxycarbonyl-L-thioprolyl-L-thioprolinal] (Cbz-[Thz]-[Thz]-aldehyde): in test [1] (setting [3]), the “Acquisition trial: Step-down latency” value is 7.6 s. In test [1] (2.2 mg/kg i.p.), the “Retention trial: Step-down latency after 24 hours” value (from here on “Retention trial … after 24 hours”) came to 170.9 s, the “Retention trial: Step-down latency after 48 hours” value (shortened to “Retention trial … after 48 hours”) was found to be 176.5 s, the “Acquisition trial: Number of step-down” value was 2.0 times and the “Acquisition trial: Total time for the test” value (“Acquisition trial: Total time” below) stood at 52.1 s. For the same compound, in test [1] (11.0 mg/kg i.p.), the “Retention trial … after 24 hours” value is 245.7 s, the “Retention trial … after 48 hours” value came to 177.0 s, the “Acquisition trial: Number of step-down” value was 2.2 times and the “Acquisition trial: Step-down latency” value was found to be 8.9 s. Further, the “Acquisition trial: Total time” value in test [1] (11.0 mg/kg i.p.) is 57.1 s.
Regarding `O=C([C@@H]1CSCN1C(=O)OCc1ccccc1)N1CSC[C@H]1CO` [Example 3, N-benzyloxycarbonyl-L-thioprolyl-L-thioprolinol], the “Inhibitory activity in vitro (in words)” value in test [2] is given as “not effective in vitro”. Moreover, the “Acquisition trial: Step-down latency” value in test [1] (setting [3]) turned out to be 9.8 s. Moreover, in test [1] (2.2 mg/kg i.p.), the “Retention trial … after 24 hours” value amounted to 238.2 s, the “Retention trial … after 48 hours” value was 174.0 s, the “Acquisition trial: Number of step-down” value was 2.4 times and the “Acquisition trial: Total time” value was 67.5 s.
